Where “and” joins values, the source holds several entries; their conditions need not be identical. Equal values may be shown once. Read-outs that look alike come from different tables or passages of the source.
Experiments:
RPMI 8226 [1] = assay: cells; details: 1% or 10% FBS
Protocol: RPMI 8226 (CCL-155), HT-29 (HTB-38), and B16-F10 (CRL-6475) cells were purchased from ATCC. RPMI 8226 cells were maintained in RPMI 1640 media supplemented with 10% (v/v) FBS, 2 mM L-glutamine, 1 mM sodium pyruvate and Penicillin/Streptomycin at 100 IU/ml and 100 μg/ml, respectively. HT-29 cells were maintained in McCoys 5A supplemented with 10% (v/v) FBS, 2 mM L-glutamine, 1 mM sodium pyruvate, 1% (v/v) non-essential amino acids, 10 mM HEPES and Penicillin/Streptomycin at 100 IU/ml and 100 μg/ml, respectively. B16-F10 cells were maintained in DMEM supplemented with 10% (v/v) FBS, 2 mM L-glutamine, 10 mM HEPES and Penicillin/Streptomycin at 100 IU/ml and 100 μg/ml, respectively.
RPMI 8226 cells were seeded at 2×10^4 cells/well in 90 μl RPMI media containing 10% (v/v) FBS or 1% (v/v) FBS into 96 well black-walled, clear-bottom tissue culture plates. […] Formulae II-16, II-17 and Formula II-18 were serially diluted in media containing 1% or 10% FBS and added in triplicate to the test wells. […] The final concentration of Formula II-18 ranged from 2 μM to 630 pM.

[2] = molecular target: T1, chymotrypsin-like activity of 20S proteasomes in PC-3 cells (Homo sapiens, UniProt P28074); assay: Chymotrypsin-like activity of 20S proteasomes in lysates of treated PC-3 cells; type: cell-based; details: 100 nM, 1 hr incubation
T1 construct: endogenous in cells; host or cells: PC-3 (ATCC CRL-1435)
Protocol: PC-3 (ATCC, CRL-1435), the human prostate cancer cell line, was cultured in F12K medium supplemented with 2 mM L-glutamine, 100 units/ml penicillin, 100 μg/ml streptomycin and 10% heat inactivated fetal bovine serum at 37° C., 5% CO2 and 95% humidified air. […] DMSO was used as the vehicle control at a final concentration of 0.1%. Following 1 hr incubation of PC-3 cells with the compounds, the cells were washed 3× with ice-cold 1× Dulbecco's Phosphate-Buffered Saline (DPBS, Mediatech, Herndon, Va.). […] Cell debris was pelleted by centrifugation at 14,000 rpm for 10 min, 4° C. and supernatants (=cell lysates) were transferred to a new tube. Protein concentration was determined by the BCA protein assay kit (Pierce Biotechnology, Rockford, Ill.). […] The released coumarin (AMC) was measured fluorometrically by using λex=390 nm and λem=460 nm. The assay was performed in a microtiter plate (Corning 3904) and followed kinetically with measurements every five minutes for 2 hr. The total amount of protein used for each assay was 20 μg. The final concentration of Suc-LLVY-AMC and DMSO was 20 μM and 0.2%, respectively. Results are presented as the percent inhibition of the 20S proteasome chymotrypsin-like activity relative to the DMSO control.

[3] = molecular target: T2, trypsin-like activity of purified rabbit muscle 20S proteasome (Oryctolagus cuniculus, UniProt G1SWK8); assay: biochemical
T2 sequence (G1SWK8 1-271): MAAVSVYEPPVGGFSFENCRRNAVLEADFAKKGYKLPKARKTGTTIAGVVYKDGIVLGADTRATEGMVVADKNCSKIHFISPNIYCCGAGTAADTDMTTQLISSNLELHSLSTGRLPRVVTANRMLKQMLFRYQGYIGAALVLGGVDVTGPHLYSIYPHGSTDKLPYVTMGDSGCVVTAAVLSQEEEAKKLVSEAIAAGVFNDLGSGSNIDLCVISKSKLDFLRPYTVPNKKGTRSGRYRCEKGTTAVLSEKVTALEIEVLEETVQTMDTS

[4] = molecular target: T3, chymotrypsin-like activity of 20S proteasomes in RPMI 8226 cells (Homo sapiens, UniProt P28074); assay: Chymotrypsin-like activity of 20S proteasomes in lysates of treated RPMI 8226 cells; type: cell-based; details: RPMI-8226, read-out: % inhibition of the chymotrypsin-like activity of 20S proteasomes in RPMI 8226 cell lysates
T3 construct: added to 2.5×10^5/ml RMPI 8226 cells; endogenous in cells; host or cells: RPMI 8226 (ATCC CCL-155)
T3 sequence (P28074 60-263): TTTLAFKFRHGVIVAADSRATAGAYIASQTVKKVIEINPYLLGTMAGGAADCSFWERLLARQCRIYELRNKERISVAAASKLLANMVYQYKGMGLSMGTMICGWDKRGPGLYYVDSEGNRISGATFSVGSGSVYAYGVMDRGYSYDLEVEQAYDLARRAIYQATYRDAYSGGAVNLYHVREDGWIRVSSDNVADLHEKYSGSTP
Protocol: RPMI 8226 (ATCC, CCL-155), the human multiple myeloma cell line, was cultured in RPMI 1640 medium supplemented with 2 mM L-glutamine, 100 units/ml penicillin, 100 μg/ml streptomycin, 1 mM sodium pyruvate and 10% heat inactivated fetal bovine serum at 37° C., 5% CO2 and 95% humidified air. […] DMSO was used as the vehicle control at a final concentration of 0.1%. Following 1 hr incubation of RMPI 8226 cells with the compounds, the cells were pelleted by centrifugation at 2,000 rpm for 10 sec at room temperature and washed 3× with ice-cold 1× Dulbecco's Phosphate-Buffered Saline (DPBS, Mediatech, Herndon, Va.). DPBS washed cells were lysed on ice for 15 min in lysis buffer (20 mM HEPES, 0.5 mM EDTA, 0.05% Triton X-100, pH 7.3) supplemented with protease inhibitor cocktail (Roche Diagnostics, Indianapolis, Ind.). Cell debris was pelleted by centrifugation at 14,000 rpm for 10 min, 4° C. and supernatants (=cell lysates) were transferred to a new tube. Protein concentration was determined by the BCA protein assay kit (Pierce Biotechnology, Rockford, Ill.). […] The released coumarin (AMC) was measured fluorometrically by using λex=390 nm and λem=460 nm. The assay was performed in a microtiter plate (Corning 3904) and followed kinetically with measurements every five minutes for 2 hr. The total amount of protein used for each assay was 20 μg. The final concentration of Suc-LLVY-AMC and DMSO was 20 μM and 0.2%, respectively.

RPMI 8226 [5] = assay: Cell growth inhibition (resazurin), RPMI 8226; details: Homo sapiens, RPMI-8226, 48 h, read-out: RPMI 8226 EC50, Table 2; 48 hours drug exposure; mean ± SD where n≥3
U266 [6] = assay: Cell growth inhibition (resazurin), U266; details: 48 hours drug exposure
[7] = molecular target: T4, caspase-like activity of purified rabbit muscle 20S proteasome (Oryctolagus cuniculus, UniProt A0A5F9DQW2); assay: In vitro inhibition of 20S proteasome caspase-like activity (Z-LLE-AMC); details: EC50 Caspase-like, Table 6, values in μM
T4 sequence (A0A5F9DQW2 1-212): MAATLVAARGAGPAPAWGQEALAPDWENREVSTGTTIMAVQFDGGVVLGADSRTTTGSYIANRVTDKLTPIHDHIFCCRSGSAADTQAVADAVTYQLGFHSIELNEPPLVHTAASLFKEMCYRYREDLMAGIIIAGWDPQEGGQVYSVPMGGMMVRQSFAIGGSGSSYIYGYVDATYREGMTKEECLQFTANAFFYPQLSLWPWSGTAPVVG

[8] = molecular target: T5, chymotrypsin-like activity of purified rabbit muscle 20S proteasome (Oryctolagus cuniculus, UniProt G1T4Q9); assay: In vitro inhibition of 20S proteasome chymotrypsin-like activity (suc-LLVY-AMC)
T5 sequence (G1T4Q9 1-263): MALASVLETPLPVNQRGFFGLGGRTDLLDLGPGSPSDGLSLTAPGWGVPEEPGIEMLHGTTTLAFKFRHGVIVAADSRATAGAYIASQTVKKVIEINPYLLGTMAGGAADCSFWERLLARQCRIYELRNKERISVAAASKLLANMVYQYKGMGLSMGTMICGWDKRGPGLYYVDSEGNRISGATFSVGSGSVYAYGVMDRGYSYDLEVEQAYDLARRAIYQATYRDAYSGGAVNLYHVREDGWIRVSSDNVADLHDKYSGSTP

U266 [9] = tested on: U266
HL-60/MX2 = assay: Cell growth inhibition (resazurin), multidrug resistant HL-60/MX2; details: ratio of EC50 values (HL-60/MX2:HL-60)
Protocol: Concentrations ranging from 6.32 μM to 2 nM were tested for II-2 and II-4.
HL-60/MX2 is a multidrug resistant tumor cell line derived from the human promyelocytic leukemia cell line, HL-60 and expresses reduced topoisomerase II activity. […] Mitoxantrone, the topoisomerase II targeting agent was included as a control.

MES-SA/Dx5 = assay: Cell growth inhibition (resazurin), multidrug resistant MES-SA/Dx5; type: cell-based, human; details: for EC50: Table 3, 48 hours drug exposure

For `CC[C@H]1C(=O)N[C@@]2([C@@H](O)[C@@H]3C=CCCC3)C(=O)O[C@@]12C` [Formula II-17], the “cytotoxicity against RPMI 8226 in media containing 1% or 10% FBS, in words” value (RPMI 8226 [1]) was “cytotoxic”, the “% inhibition of the chymotrypsin-like activity of 20S proteasomes in PC-3 cell lysates” value [2] was 26% and the EC50 [3] was 0.573 µM and 0.602 µM. The inhibition at 0.001 µM [4] was 6 ± 6%, the inhibition at 0.005 µM [4] was 10 ± 5% and the inhibition at 0.01 µM [4] was 6 ± 6%. The inhibition at 0.05 µM [4] was 26 ± 5%, the inhibition at 0.1 µM [4] was 30 ± 4% and the inhibition at 0.5 µM [4] was 39 ± 3%. The inhibition at 1 µM [4] was 46 ± 4% and the inhibition at 10 µM [4] was 65 ± 5%.

`C[C@@]12OC(=O)[C@]1([C@@H](O)[C@H]1CCC[C@H](Cl)[C@H]1O)NC(=O)[C@@H]2CCCl` [Formula IV-3C] gave an EC50 (RPMI 8226 [5]) greater than 20 µM, an EC50 (U266 [6]; Homo sapiens, U-266, 48 h, read-out: U266 EC50, Table 2) of 7.76 µM and an EC50 (U266 [6]; read-out: U266 EC50, Table 2) of 8.29 µM. For the same compound, the EC50 [7] was greater than 20 µM, the EC50 ([8]; EC50 Chymotrypsin-like, Table 6, values in μM) was 4.9 µM and 10.6 µM and the EC50 ([8]; EC50 values, chymotrypsin-like activity, range or bound stated in text, summary of Table 6) was 1.4 to 10.6 µM. For the same compound, the EC50 [3] was greater than 20 µM and the “cytotoxicity against U266, in words” value (U266 [9]) was “cytotoxic”.

For `O=C1c2c(O)ccc(O)c2C(=O)c2c(NCCNCCO)ccc(NCCNCCO)c21` [Mitoxantrone, reference compound], the Fold change (HL-60/MX2) was roughly 30 fold.

`CC(C)[C@H](O)[C@@]12NC(=O)[C@H](C)[C@@H]1OC2=O` [Omuralide, reference compound] was tested, and the “% inhibition of the chymotrypsin-like activity of 20S proteasomes in PC-3 cell lysates” value [2] was 36%, the inhibition at 0.1 µM ([2]; PC-3, read-out: % inhibition of the chymotrypsin-like activity of 20S proteasomes in PC-3 cell lysates) was 36% and the inhibition at 0.001 µM ([4]; 1 nM, 1 hr incubation, mean ± SD, n = 3) was 5 ± 9%. For the same compound, the inhibition at 0.005 µM ([4]; 5 nM, 1 hr incubation, mean ± SD, n = 3) was 8 ± 9%, the inhibition at 0.05 µM ([4]; 50 nM, 1 hr incubation, mean ± SD, n = 3) was 17 ± 11% and the inhibition at 0.1 µM ([4]; 100 nM, 1 hr incubation, mean ± SD, n = 3) was 32 ± 8%. It also gave an inhibition at 0.5 µM ([4]; 500 nM, 1 hr incubation, mean ± SD, n = 3) of 68 ± 11%.

`CC(=O)O[C@H]1C(=O)[C@@]2(C)[C@H]([C@H](OC(=O)c3ccccc3)[C@]3(O)C[C@H](OC(=O)[C@H](O)[C@@H](NC(=O)c4ccccc4)c4ccccc4)C(C)=C1C3(C)C)[C@]1(OC(C)=O)CO[C@@H]1C[C@@H]2O` [Paclitaxel] showed an EC50 (MES-SA/Dx5; Homo sapiens, MES-SA/Dx5, 48 h) of 2.93 µM, an EC50 (MES-SA/Dx5) of 5.21 µM and a Fold change (MES-SA/Dx5; ratio of EC50 values (MES-SA/Dx5:MES-SA)) of roughly 800 fold.
